Results reported in US11357739B2, “Pimarane diterpenoids for use in wound healing and angiogenesis” (UNIVERSITY OF SOUTH CAROLINA, priority 2017, dated 2022).

How the values were obtained:
[1] = system: human umbilical vein endothelial cells (HUVECs); assay: Cytotoxicity assay (MTS), cell proliferation and viability; format: cell-based; conditions: 24 hours of exposure, 0.1 to 1 μg/mL, vs control and DMSO vehicle control
Procedure: (§1) Human umbilical vein endothelial cells (HUVECs), adult normal human epidermal keratinocytes (NHEKs), normal human dermal fibroblasts (NHDFs) and related media for cell culture including endothelial basal and growth medium-2 (EBM-2, EGM-2), keratinocyte basal and growth medium-2 (KBM-2, KGM™-2), fibroblast basal and growth medium (FBM, FGM™) were purchased from Lonza. Cells were incubated at 37° C. and 5% CO2 throughout the experiments. Phosphate-Buffered Saline (PBS), [3-(4,5-dimethylthiazol-2-yl)-5-(3-carboxymethoxyphenyl)-2-(4-sulfophenyl)-2H-tetrazolium (MTS) (Promega) colorimetric assay and growth factor reduced matrigel BD (Corning) were from Sigma-Aldrich. Culture-Insert 2 Well 24 IbiTreat was used for the scratch assay.
(§2) In order to determine cell viability, HUVECs, NHDFs, NHEKs were cultured in their respective growth media to reach 80% confluency. Cells were seeded at the density of 3×10^3 cell per 96 well plate in a total volume of 100 μl in each well. After seeding, the cells were incubated for 24 hours at 37° C. and 5% CO2 to allow for cell attachment. Media was changed and replaced with media supplemented with the desired concentration of the compound of interest (0.1, 0.5, 1 and 10 μg/mL), being first dissolved at 10,000 μg/mL in DMSO and subsequently diluted in culture media. The vehicle control was culture medium supplemented with DMSO 0.1% (Macron Fine Chemicals), representing the highest final concentration of DMSO used to dissolve the natural compound. Following 24 hours of incubation, […] and incubated for 2 hours. Colored formazan absorbance which was produced by bio-reduction of MTS tetrazolium compound in live cells was read at 490 nm using a Spectramax 190 spectrophotometer and cell proliferation was assessed. A standard calibration curve at different concentration of cells was prepared to correlate cell number to absorbance.

[2] = system: normal human dermal fibroblasts (NHDFs); assay: as above; format: cell-based; conditions: 24 hours of exposure, 0.1 to 1 μg/mL, vs control and DMSO vehicle control
Procedure: as §1, §2

[3] = system: normal human epidermal keratinocytes (NHEKs); assay: as above; format: cell-based; conditions: 24 hours of exposure, 0.1 to 1 μg/mL, vs control and DMSO vehicle control
Procedure: as §1, §2

NHEKs = assay: In vitro scratch assay (cell migration, wound closure); format: cell-based, human
Procedure: as §1
Cell migration of NHEKs was assessed through making a cell-free gap with a Culture-insert 2 well 24, consisting of two wells that were separated by a wall. A total of 70 μl of cell suspension comprising of 35×10^3 cell was applied in each well. Cells were given 24 hours to attach and reach confluency. Culture inserts were then removed, and cell debris was washed with PBS. The samples were supplemented with different concentration of the compound of interest in growth media and incubated at 37° C. and 5% CO2 for 20 hours. Images were taken every 4 hours using a phase contrast Nikon Eclipse Ti-E inverted microscope. Quantification of percent wound healing was performed by measuring the gap distance using the following formula:
[formula] in which Wn is the width of gap after every 4 hours and W0 is the initial width zero right after forming a scratch. Capillary Tube Formation

HUVECs = assay: Capillary tube formation on matrigel; format: cell-based, human; conditions: 1 μg/mL, 8 hours
Procedure: as §1
Matrigel was kept in a −20° C. freezer and thawed on ice overnight in a 4° C. refrigerator. A total of 50 μl of thawed matrigel was added to each well of pre-chilled 96-well plate and then incubated for 30 min at 37° C. to form a gel. Next, 100 μl of a HUVEC cell suspension (passage 2-6) in conditioned media (20000 cell/well), including the compound of this invention, was added to gel and incubated at 37° C. for 8 hours. The number of junctions in tubes was examined using a phase contrast inverted microscope (Invitrogen EVOS FL Auto Cell Imaging) and compared to the conditions with no compound (negative control) and VEGF growth factor (positive control).

C=CC1(C)CC2=CCC3C(C)(C)CCC(O)C3(C)C2CC1O (stereo not shown) [compound of FIG. 1]
cell toxicity (MTS) [1]: no cell toxicity
cell toxicity (MTS) [2]: no cell toxicity
cell toxicity (MTS) [3]: no cell toxicity
migration during exposure time (NHEKs; 1 μg/mL, compared with untreated cells and 0.1 μg/mL): higheast migration
percentage of wound closure relative to non-treated control groups (NHEKs; 1 μg/mL, four hours post-treatment): ~10 fold
wound closure of NHEKs (NHEKs; 0.1 and 1 μg/mL, monitored for 20 hours, vs untreated control): significantly enhance the wound closure
tube formation, more than the control (untreated cell) (HUVECs): 60%
